Laboratory results published in patent US20220061324A1, “PESTICIDALLY ACTIVE HETEROCYCLIC DERIVATIVES WITH SULFUR CONTAINING SUBSTITUENTS” (SYNGENTA CROP PROTECTION AG, priority 2018, published 2022).
Like-named read-outs stand apart in the source and are kept apart here.

Experiments:
Format in all cases: in vivo
[1] = tested on: Plutella xylostella (Diamond Back Moth); assay: Activity against Plutella xylostella (diamond back moth), artificial diet; conditions: 192 h, read-out: effect in at least one of the two categories (mortality or growth inhibition); for percent effect (mortality or growth inhibition) at 200 ppm: application rate 200 ppm, eggs, 8 days after infestation
Procedure: Example B3: Activity Against Plutella xylostella (Diamond Back Moth)
24-well microtiter plates with artificial diet were treated with aqueous test solutions prepared from 10,000 ppm DMSO stock solutions by pipetting. After drying, Plutella eggs were pipetted through a plastic stencil onto a gel blotting paper and the plate was closed with it. The samples were assessed for mortality and growth inhibition in comparison to untreated samples 8 days after infestation.

[2] = tested on: Myzus persicae (Green Peach Aphid); assay: Activity against Myzus persicae (green peach aphid), feeding/contact activity; conditions: 144 h
Procedure: Example B4: Activity Against Myzus persicae (Green Peach Aphid) Feeding/Contact Activity
Sunflower leaf discs were placed onto agar in a 24-well microtiter plate and sprayed with aqueous test solutions prepared from 10,000 ppm DMSO stock solutions. After drying, the leaf discs were infested with an aphid population of mixed ages. The samples were assessed for mortality 6 days after infestation.

[3] = tested on: Diabrotica balteata (Corn Root Worm); assay: Activity against Diabrotica balteata (corn root worm), maize sprouts sprayed; conditions: 96 h, read-out: effect in at least one of the two categories (mortality or growth inhibition); for percent effect (mortality or growth inhibition) at 200 ppm: application rate 200 ppm, L2 larvae, 4 days after infestation
Procedure: Example B1: Activity Against Diabrotica balteata (Corn Root Worm)
Maize sprouts placed onto an agar layer in 24-well microtiter plates were treated with aqueous test solutions prepared from 10,000 ppm DMSO stock solutions by spraying. After drying, the plates were infested with L2 larvae (6 to 10 per well). The samples were assessed for mortality and growth inhibition in comparison to untreated samples 4 days after infestation.

[4] = tested on: Spodoptera littoralis (Egyptian Cotton Leaf Worm); assay: Activity against Spodoptera littoralis (Egyptian cotton leaf worm), cotton leaf discs; conditions: foliar, 72 h, read-out: control (mortality, anti-feedant effect or growth inhibition)
Procedure: Example B5: Activity Against Spodoptera littoralis (Egyptian Cotton Leaf Worm)
Cotton leaf discs were placed onto agar in 24-well microtiter plates and sprayed with aqueous test solutions prepared from 10,000 ppm DMSO stock solutions. After drying the leaf discs were infested with five L1 larvae. The samples were assessed for mortality, anti-feeding effect, and growth inhibition in comparison to untreated samples 3 days after infestation. Control of Spodoptera littoralis by a test sample is given when at least one of the categories mortality, anti-feedant effect, and growth inhibition is higher than the untreated sample.

[5] = application rate 200 ppm, feeding/contact, mixed ages, 6 days after infestation, read-out: mortality
[6] = application rate 200 ppm, L1 larvae, 3 days after infestation

| SMILES | percent effect (mortality or growth inhibition) at 200 ppm [1] | mortality at 200 ppm [2, 5] | percent effect (mortality or growth inhibition) at 200 ppm [3] | percent control (mortality, anti-feedant effect or growth inhibition) at 200 ppm [4, 6] | percent control (mortality or growth inhibition) at 200 ppm [1] | mortality at 200 ppm [2] | percent control (mortality or growth inhibition) at 200 ppm [3] | percent control (mortality, anti-feedant effect or growth inhibition) at 200 ppm [4] |
| --- | --- | --- | --- | --- | --- | --- | --- | --- |
| CCS(=O)(=O)c1cc(C2CC2)cnc1-c1ncc2c(OCC(F)(F)C(F)(F)F)cccn12 [Compound P40, 3-(5-cyclopropyl-3-ethylsulfonyl-2-pyridyl)-8-(2,2,3,3,3-penta-fluoropropoxy)imidazo [1,5-a]pyridine] | ≥ 80% | ≥ 80% | ≥ 80% | – | – | – | – | – |
| CCS(=O)(=O)c1ccc(NC)nc1-c1ncc2c(OCC(F)(F)C(F)(F)F)cccn12 [Compound P31, 5-ethylsulfonyl-N-methyl-6-[8-(2,2,3,3,3-penta-fluoropropoxy)imidazo [1,5-a]pyridin-3-yl]pyri-din-2-amine] | ≥ 80% | ≥ 80% | ≥ 80% | ≥ 80% | – | – | – | – |
| CCSc1cccnc1-c1ncc2c(OCC(F)(F)C(F)F)nccn12 [Compound P5] | – | – | – | – | ≥ 80% | ≥ 80% | ≥ 80% | ≥ 80% |
| CCSc1cc(C2CC2)cnc1-c1ncc2c(OCC(F)(F)C(F)(F)F)cccn12 [Compound P42, 3-(5-cyclopropyl-3-ethylsulfanyl-2-pyridyl)-8-(2,2,3,3,3-penta-fluoropropoxy)imidazo [1,5-a]pyridine] | ≥ 80% | – | ≥ 80% | – | – | – | – | – |
| CCS(=N)(=O)c1cc(OC(C)(C)C#N)cnc1-c1ncc2c(OCC(F)(F)C(F)(F)F)cccn12 (centres unmarked) [Compound P49, 2-[[5-(ethylsulfonimidoyl)-6-[8-(2,2,3,3,3-penta-fluoropropoxy)imidazo [1,5-a]pyridin-3-yl]-3-pyridyl]oxy]-2-methyl-propanenitrile] | ≥ 80% | – | ≥ 80% | – | – | – | – | – |
| CCSc1cc(N(C)C(C)=O)cnc1-c1ncc2c(OCC(F)(F)C(F)(F)F)cccn12 [Compound P41, N-[5-ethylsulfanyl-6-[8-(2,2,3,3,3-penta-fluoropropoxy)imidazo [1,5-a]pyridin-3-yl]-3-pyridyl]-N-methyl-acetamide] | ≥ 80% | – | – | – | – | – | – | – |
| CCS(=O)(=O)c1ccc(NC(=O)NC)nc1-c1ncc2c(OCC(F)(F)C(F)(F)F)nccn12 [Compound P9, 1-[5-ethylsulfonyl-6-[8-(2,2,3,3,3-penta-fluoropropoxy)imidazo [1,5-a]pyrazin-3-yl]-2-pyridyl]-3-methyl-urea] | ≥ 80% | – | ≥ 80% | – | – | – | – | – |
| CCS(=O)(=O)c1ccc(-n2cncn2)nc1-c1ncc2c(OCC(F)(F)C(F)(F)F)cccn12 [Compound P33, 3-[3-ethylsulfonyl-6-(1,2,4-triazol-1-yl)-2-pyridyl]-8-(2,2,3,3,3-pentafluoropropoxy)imi dazo[1,5-a]pyri-dine] | – | – | – | – | ≥ 80% | – | ≥ 80% | ≥ 80% |
| CCS(=O)(=O)c1cccnc1-c1ncc2c(OCC(F)(F)C(F)F)nccn12 [Compound P6, 3-(3-ethylsulfonyl-2-pyridyl)-8-(2,2,3,3-tetrafluoropropoxy)imi-dazo[1,5-a]pyrazine] | – | – | – | – | ≥ 80% | ≥ 80% | ≥ 80% | ≥ 80% |
| CCS(=O)(=O)c1ccc(N(C)C(C)=O)nc1-c1ncc2c(OCC(F)(F)C(F)(F)F)cccn12 [Compound P37, N-[5-ethylsulfonyl-6-[8-(2,2,3,3,3-penta-fluoropropoxy)imidazo [1,5-a]pyridin-3-yl]-2-pyridyl]-N-methyl-acetamide] | ≥ 80% | ≥ 80% | ≥ 80% | – | – | – | – | – |
| CCSc1cccnc1-c1ncc2c(OCC(F)(F)C(F)(F)F)nccn12 [Compound P7, 3-(3-ethylsulfanyl-2-pyridyl)-8-(2,2,3,3,3-pentafluoropropoxy)imi-dazo[1,5-a]pyrazine] | – | – | – | – | ≥ 80% | ≥ 80% | ≥ 80% | – |
| CCSc1cc(C2(C#N)CC2)cnc1-c1ncc2c(OCC(F)(F)C(F)(F)F)cccn12 [Compound P53, 1-[5-ethylsulfanyl-6-[8-(2,2,3,3,3-penta-fluoropropxoy)imidazo [1,5-a]pyridin-3-yl]-3-pyridyl]cyclopropane-carbonitrile] | ≥ 80% | – | ≥ 80% | – | – | – | – | – |
| CCS(=O)(=O)c1cc(Br)cnc1-c1ncc2c(OCC(F)(F)C(F)(F)F)cccn12 [Compound P43, 3-(5-bromo-3-ethylsulfonyl-2-pyridyl)-8-(2,2,3,3,3-pentafluoropropoxy)imi-dazo[1,5-a]pyridine] | – | – | – | – | ≥ 80% | – | ≥ 80% | – |
| CCSc1cc(C2CC2)cnc1-c1ncc2c(OCC(F)(F)C(F)(F)F)nccn12 [Compound P22, 3-(5-cyclopropyl-3-ethylsulfanyl-2-pyridyl)-8-(2,2,3,3,3-penta-fluoropropoxy)imidazo [1,5-a]pyrazine] | ≥ 80% | – | ≥ 80% | ≥ 80% | – | – | – | – |
| CCS(=O)(=O)c1ccc(N(C)C(=O)NC)nc1-c1ncc2c(OCC(F)(F)C(F)(F)F)nccn12 [Compound P14, 1-[5-ethylsulfonyl-6-[8-(2,2,3,3,3-penta-fluoropropoxy)imidazo [1,5-a]pyrazin-3-yl]-2-pyridyl]-1,3-dimethyl-urea] | ≥ 80% | ≥ 80% | ≥ 80% | ≥ 80% | – | – | – | – |
| CCS(=O)(=O)c1cc(C(C)(C)C#N)cnc1-c1ncc2c(OCC(F)(F)C(F)(F)F)nccn12 [Compound P16, 2-[5-ethylsulfonyl-6-[8-(2,2,3,3,3-penta-fluoropropoxy)imidazo [1,5-a]pyrazin-3-yl]-3-pyridyl]-2-methyl-propanenitrile] | ≥ 80% | ≥ 80% | ≥ 80% | ≥ 80% | – | – | – | – |
| CCSc1cc(C(C)(C)C#N)cnc1-c1ncc2c(OCC(F)(F)C(F)(F)F)cccn12 [Compound P46, 2-[5-ethylsulfanyl-6-[8-(2,2,3,3,3-penta-fluoropropoxy)imidazo [1,5-a]pyridin-3-yl]-3-pyridyl]-2-methyl-propanenitrile] | ≥ 80% | – | – | – | – | – | – | – |
| CCSc1cc(Oc2ccccn2)cnc1-c1ncc2c(OCC(F)(F)C(F)(F)F)nccn12 [Compound P20, 3-[3-ethylsulfanyl-5-(2-pyridyloxy)-2-pyridyl]-8-(2,2,3,3,3-penta-fluoropropoxy)imidazo [1,5-a]pyrazine] | ≥ 80% | – | ≥ 80% | ≥ 80% | – | – | – | – |
| CCS(=O)(=O)c1cc(Br)cnc1-c1ncc2c(OCC(F)(F)C(F)(F)F)nccn12 [Compound P4, 3-(5-bromo-3-ethylsulfonyl-2-pyridyl)-8-(2,2,3,3,3-pentafluoropropoxy)imi-dazo[1,5-a]pyrazine] | – | – | – | – | ≥ 80% | ≥ 80% | ≥ 80% | ≥ 80% |
| CCS(=O)(=O)c1ccc(N(C)C(=O)C2CC2)nc1-c1ncc2c(OCC(F)(F)C(F)(F)F)cccn12 [Compound P38, N-[5-ethylsulfonyl-6-[8-(2,2,3,3,3-penta-fluoropropoxy)imidazo [1,5-a]pyridin-3-yl]-2-pyridyl]-N-methyl-cyclopropanecarboxamide] | ≥ 80% | – | ≥ 80% | ≥ 80% | – | – | – | – |
| CCS(=O)(=O)c1ccc(Cl)nc1-c1ncc2c(OCC(F)(F)C(F)(F)F)cccn12 [Compound P30, 3-(6-chloro-3-ethylsulfonyl-2-pyridyl)-8-(2,2,3,3,3-pentafluoropropoxy)imi-dazo[1,5-a]pyridine] | – | – | – | – | ≥ 80% | – | – | ≥ 80% |
